Experimental data reported in patent US20230133445A1, “COMPOSITIONS AND METHODS FOR IMPROVING THE APPEARANCE OF SKIN” (L'Oreal, priority 2021, published 2023).

Assays:
[1] = type: in vitro ADME, human
Procedure: Human skin samples were obtained from abdominal surgery. Excess subcutaneous fat was removed, if necessary. Skin samples were excised and cut into pieces of around 2 cm×2 cm. Thickness was measured and transepidermal water loss (TEWL) was measured. The human skin was included in the study if the TEWL was between 0.5 and 13 g/m^2/h for abdominal skin. The 2 cm^2 skin samples were kept in a static cell in a diffusion chamber in a Franz cell horizontal cell clamp system (Crown Glass Company, Inc.) and maintained at a constant temperature of 32° C.±1° C. The static cells consist of a donor chamber and a receptor chamber with a 7 mL receptor fluid compartment separated by the skin.
The cells were placed on a magnetic stirrer which was integrated with a fixed temperature water bath maintained in order to have 32° C.±1° C. at the skin surface. The receptor compartment of each cell was filled with the receptor fluid (PBS) and was continuously stirred. The skin samples were placed on the receptor compartment. The donor compartment was then placed onto the skin samples. […]
A composition containing 2 wt % acetyl trifluoromethylphenyl valylglycine was applied to the skin sample at a rate of 10 mg/cell using a positive displacement pipette and the exact amount applied was determined by weight then recorded (Sartorius Entris II Essential Analytical balance, Thermo-Fisher). […]
The skin was then stripped with consistent weight and time of application. […] The strips samples were stored with solvent (methanol) at −20° C. for a maximum of 5 days before being analyzed. […] The RS vials were stored with solvent (methanol) at −20° C. for a maximum of 7 days before being analyzed. Dermis and epidermis samples were stored with solvent at −20° C. for a maximum of 7 days before being analyzed. The receptor fluid was taken 16 hours after the application and the samples were analyzed.
Receptor fluid samples were stored at −20° C. for a maximum of 6 days before being analyzed. […] Samples were stored at −20° C. for a maximum of 5 days before being analyzed.
The final extract was analyzed by LC-MS/MS. […]

[2] = target: T1, Neutrophil Elastase (Homo sapiens, UniProt P08246); test: Neutrophil Elastase (NE) Inhibition in tubo assay (MAK213, Sigma-Aldrich); type: biochemical
T1 construct: purchased Sigma-Aldrich MAK213
T1 sequence (P08246 30-267): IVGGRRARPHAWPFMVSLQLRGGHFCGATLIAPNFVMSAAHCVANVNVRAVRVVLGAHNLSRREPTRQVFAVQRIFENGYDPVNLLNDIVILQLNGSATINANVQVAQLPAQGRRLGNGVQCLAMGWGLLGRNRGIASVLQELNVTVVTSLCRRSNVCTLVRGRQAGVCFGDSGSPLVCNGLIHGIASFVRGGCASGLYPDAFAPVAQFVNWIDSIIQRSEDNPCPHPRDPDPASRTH
Procedure: The ability of acetyl trifluoromethylphenyl valylglycine (“ATV”), glycolic acid, and/or lactic acid to inhibit the elastin-hydrolyzing effect of elastase was evaluated in a Neutrophil Elastase (NE) Inhibition in tubo assay (MAK213, Sigma-Aldrich, MO). Neutrophil Elastase activity was measured by hydrolyzing the substrate to yield a fluorescent product (λex=400/λem=505 nm) proportional to the enzymatic activity present.
A 4× sample inhibitor solution of the each tested chemical peeling agent and acetyl trifluoromethylphenyl valylglycine, and every combination provided in FIGS. 1 and 2 was prepared. The inhibitor/positive control (Elastase Inhibitor, SPCK, AG Scientific), enzyme/negative control (contains elastase), neutrophil elastase, and substrate solutions were prepared. The test compounds, controls, and neutrophil elastase were added to a 96-well plate, protected from light, and incubated at 37° C. for 5 minutes. The elastin substrate was then added to each well and the fluorescence (FLU, λex=400 nm, λem=505 nm) was measured every minute for thirty minutes at 37° C. The slope of the plot (time vs FLU) was taken. Relative inhibition was calculated as follows: […]

CC(=O)N(c1cccc(C(F)(F)F)c1)C(C(=O)NCC(=O)O)C(C)C (stereo not shown) [ATV, acetyl trifluoromethylphenyl valylglycine]
amount penetrated through the stratum corneum [1]: about 0.08 wt %
amount penetrating past the stratum corneum barrier into epidermis, dermis and receptor fluid [1]: about 0.8%
dermal dose of the 2 wt % preparation [1]: at least 0.08 wt %
Average Inhibition (%) ([2]; Table 1, 0.0125 wt % ATV): 12.49%
Average Inhibition (%) ([2]; Table 1, 0.025 wt % ATV): 14.97%
Average Inhibition (%) ([2]; Table 1, 0.0625 wt % ATV): 18.36%
Average Inhibition (%) ([2]; Table 2, 0.0125 wt % ATV): 4.93%
Average Inhibition (%) ([2]; Table 2, 0.025 wt % ATV): 9.311%
Average Inhibition (%) ([2]; Table 2, 0.0625 wt % ATV): 11.96%

O=C(O)CO [Glycolic Acid, reference compound]
Average Inhibition (%) ([2]; Table 1, 0.125 wt % Glycolic Acid): 15.8949%
Average Inhibition (%) ([2]; Table 1, 0.625 wt % Glycolic Acid): 23.89%

CC(O)C(=O)O (stereo not shown) [Lactic Acid, reference compound]
Average Inhibition (%) ([2]; Table 2, 0.125 wt % Lactic Acid): 8.507%
Average Inhibition (%) ([2]; Table 2, 0.625 wt % Lactic Acid): 24.09%
